Experimental data as given in patent publication US6515197B1, “Transgenic mouse expressing a polynucleotide encoding a human ataxin-2 polypeptide” (Cedars-Sinai Medical Center, priority 2000, dated 2003).

System: proteasomal pathway
Assay: lactacystin treatment of 293T cells transfected with SCA2 constructs, western blot
Type: cell-based
Experimental: To further confirm that the 42 kD fragment was generated preferably by ataxin-2 with an expanded polyQ tract, and to investigate whether mutant ataxin-2 was ubiquitinated, 293T cells were transfected with pEGFP-SCA2(Q22) or pEGFP-SCA2(Q58), followed by treatment with lactacystin for 24 hours to inhibit the proteasomal pathway. Briefly, to generate GFP fusion with SCA2, a full-length SCA2 cDNA including nucleotides 145 to 4,481 (Pulst et al., Nature Genet., 14:269-276 (1996)) was assembled in the pBluescript vector with 22 or 58 CAG repeats. To generate ataxin-2 expression plasmids, the full-length SCA2 cDNA containing either the 22 or 58 CAG repeat was shuttled into the pEGFPC2 (Clontech; Palo Alto Calif.) or pcDNA vectors (Invitrogen; Carlsbad Calif.). These constructs were named pEGFP-SCA22, pEGFP-SCA58, pcDNA-SCA22 or pcDNA-SCA58.
Transient expression of pEGFP-SCA2 constructs was analyzed in 293T cells. To investigate ubiquitination of ataxin-2, 293T cells growing at 60% confluency in 100-mm Petri dishes were transfected with either pEGFP-SCA2 or pcDNA-SCA2 constructs (10 μg) containing either 22 or 58 CAG repeats. Transfected cells were grown overnight and then treated with culture medium with or without lactacystin (10 μM) for 24 h. Cells were incubated with triple detergent buffer (0.5% sodium dodecyl sulfate (SDS), 1% Triton-X 100, 0.5% deoxycholate, 100 mM Tris-HCl, pH 8.0, 150 mM NaCl, and Sigma mammalian protease inhibitors cocktail (Sigma; St. Louis Mo.)) for 1 h on ice with occasional vortexing. Protein extracts were centrifuged at maximum speed in an Eppendorf microfuge at 4° C. for 30 min, and pellets were resuspended in triple detergent buffer. Both protein extract and pellet suspension were stored at −70° C. For western-blot analysis, 100 μg total protein extract per lane was mixed with SDS-polyacrylamide gel electrophoresis (PAGE) sample buffer and incubated for 2 h at 37° C. before loading on to a 4-15% SDS-PAGE gradient gel. Western blots were detected with SCA2A, 1C2 and ubiquitin antibodies.
Western blots were performed on transfected 293 cell protein extracts and insoluble pellets using the GFP or ubiquitin antibody. Untreated cells served as controls. The GFP antibody detected the full-length GFP-ataxin-2 with Q22 and Q58 at 200 kD and an additional band at 70 kD in 293T cells transfected with pEGFP-SCA2(Q58). Neither the 70 kD nor the 200 kD proteins were detected in untransfected 293T protein extracts.
To investigate whether the GFP fusion caused any interference with ubiquitin conjugation, 293T cells were transfected with pcDNA-SCA2(Q22) or pcDNA-SCA2(58) and treated with lactacystin.

CC(=O)N[C@@H](CSC(=O)[C@]1([C@@H](O)C(C)C)NC(=O)[C@H](C)[C@@H]1O)C(=O)O [lactacystin]
levels of GFP-tagged ataxin-2 (293T cells transfected with pEGFP-SCA2(Q22) or (Q58), lactacystin 10 μM for 24 h, versus untreated cells, GFP antibody): increased levels | levels of ubiquitin-conjugated protein complexes (293T cells transfected with pEGFP-SCA2(Q22) or (Q58), lactacystin 10 μM for 24 h, versus untreated cells, ubiquitin antibody): increased levels | total amount of ataxin-2(Q58) (p180) (293T cells transfected with pcDNA-SCA2(58), lactacystin-treated, 1C2 or ubiquitin antibodies): increased | formation of large ataxin-2 aggregates (293T cells transfected with pcDNA-SCA2(Q22) or pcDNA-SCA2(58), lactacystin-treated, western blot): no large ataxin-2 aggregates were found
